Target: T1, full-length FGFR1c (Homo sapiens, UniProt P11362)
T1 construct: gene FGFR1; full-length FGFR1c, pcDNA3.1, stably transfected in U2OS cells (U2OSR1)
Assay: Western blot of FGFR phosphorylation (pTyr653/[…]) in U2OSR1 cells
Assay type: cell-based
Conditions: 30 µM honokiol pre-treatment, then 10 ng/mL FGF1 with heparin, 15 min; serum-starved cells

T1 sequence (P11362 22-822): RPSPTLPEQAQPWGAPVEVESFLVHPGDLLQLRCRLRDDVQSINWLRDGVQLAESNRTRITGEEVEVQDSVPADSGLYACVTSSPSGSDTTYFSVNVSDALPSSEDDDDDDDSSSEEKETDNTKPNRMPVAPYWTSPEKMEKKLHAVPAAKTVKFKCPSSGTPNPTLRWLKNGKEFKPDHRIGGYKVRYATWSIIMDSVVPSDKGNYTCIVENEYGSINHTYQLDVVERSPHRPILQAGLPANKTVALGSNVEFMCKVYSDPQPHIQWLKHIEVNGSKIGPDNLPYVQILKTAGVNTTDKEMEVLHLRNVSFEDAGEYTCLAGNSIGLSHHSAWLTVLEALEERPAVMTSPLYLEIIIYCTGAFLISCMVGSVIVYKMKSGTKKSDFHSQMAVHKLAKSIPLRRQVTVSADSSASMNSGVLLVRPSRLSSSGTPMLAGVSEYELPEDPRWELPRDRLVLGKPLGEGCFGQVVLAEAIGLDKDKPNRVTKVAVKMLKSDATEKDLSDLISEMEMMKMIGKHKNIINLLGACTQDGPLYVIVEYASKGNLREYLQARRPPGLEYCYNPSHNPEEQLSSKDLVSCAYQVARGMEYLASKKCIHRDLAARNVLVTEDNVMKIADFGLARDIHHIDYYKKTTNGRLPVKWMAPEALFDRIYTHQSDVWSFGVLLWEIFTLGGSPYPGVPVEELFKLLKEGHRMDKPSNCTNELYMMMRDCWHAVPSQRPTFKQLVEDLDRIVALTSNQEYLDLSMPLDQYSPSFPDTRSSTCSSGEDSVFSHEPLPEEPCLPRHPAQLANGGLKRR

## C=CCc1ccc(O)c(-c2ccc(O)c(CC=C)c2)c1 [honokiol]
  p-FGFR inhibition at 30 μM: in cells treated with honokiol, FGF1 did not induce activation of either FGFR
